Here are results for ten compounds from ChEMBL document CHEMBL4028867, “Design, Synthesis, and Characterization of N-Oxide-Containing Heterocycles with in Vivo Sterilizing Antitubercular Activity” (J Med Chem, 2017).

Usually MIC90 stands for the lowest concentration that inhibits either 90% of growth or 90% of the strains tested, depending on the study. Read a low MIC90 as greater potency.

Structures are written as SMILES. In brackets after ≈: the same amount, converted by molar mass.

Common to all, as to assay type: functional
Experiment [1] deals with Mycobacterium tuberculosis. The experiment in a line: Antitubercular activity against isoniazid resistant Mycobacterium tuberculosis H37Rv ATCC 35822 after 24 hrs by MABA method. The following applies: H37Rv ATCC 35822, 24 h. (Alamar Blue is a resazurin reagent that responds to reducing activity.)
Experiment [2] has as its system Mycobacterium tuberculosis. Description: Antitubercular activity against rifampicin resistant Mycobacterium tuberculosis H37Rv ATCC 35838 after 24 hrs by MABA method. The following applies: H37Rv ATCC 35838, 24 h.
For experiment [3], the system named is Mycobacterium tuberculosis. Description: Antitubercular activity against moxifloxacin resistant Mycobacterium tuberculosis H37Rv after 24 hrs by MABA method.
The subject of experiment [4] is Mycobacterium tuberculosis. The experiment in a line: Antitubercular activity against bedaquiline resistant Mycobacterium tuberculosis H37Rv after 24 hrs by MABA method.
Experiment [5] deals with Mycobacterium tuberculosis. The experiment in a line: Antitubercular activity against capreomycin resistant Mycobacterium tuberculosis H37Rv after 24 hrs by MABA method.
Experiment [6] concerns Mycobacterium tuberculosis. Description: Antitubercular activity against streptomycin resistant Mycobacterium tuberculosis H37Rv ATCC 35820 after 24 hrs by MABA method. To be noted: H37Rv ATCC 35820, 24 h.

In the case of `NNC(=O)c1ccncc1` [ISONIAZID], the MIC90 was greater than 5 µM in experiment [1]; 0.35 µM (≈ 0.048 µg/mL) in experiment [2]; 0.28 µM (≈ 0.0384 µg/mL) in experiment [3]; 0.23 µM (≈ 0.0315 µg/mL) in experiment [4]; greater than 5 µM in experiment [5]; greater than 5 µM in experiment [6].

For `NC(=O)c1c(COc2cccc(/C=N/NC(=O)c3ccncc3)c2)no[n+]1[O-]`, the MIC90 was greater than 262 µM in experiment [1]; 2.31 µM (≈ 0.883 µg/mL) in experiment [2]; 1.22 µM (≈ 0.466 µg/mL) in experiment [3]; 2.56 µM (≈ 0.979 µg/mL) in experiment [4]; greater than 262 µM in experiment [5]; greater than 262 µM in experiment [6].

On to `NC(=O)c1c(COc2ccc(/C=N/NC(=O)c3ccncc3)cc2)no[n+]1[O-]`, for which the MIC90 was greater than 262 µM in experiment [1]; 1.99 µM (≈ 0.761 µg/mL) in experiment [2]; 0.66 µM (≈ 0.252 µg/mL) in experiment [3]; 6.38 µM (≈ 2.44 µg/mL) in experiment [4]; greater than 262 µM in experiment [5]; greater than 262 µM in experiment [6].

Consider `CO[C@H]1/C=C/O[C@@]2(C)Oc3c(C)c(O)c4c(O)c(c(/C=N/N5CCN(C)CC5)c(O)c4c3C2=O)NC(=O)/C(C)=C\C=C\[C@H](C)[C@H](O)[C@@H](C)[C@@H](O)[C@@H](C)[C@H](OC(C)=O)[C@@H]1C` [RIFAMPIN], for which the MIC90 in experiment [1] is 0.01 µM (≈ 0.00823 µg/mL); in experiment [2] it was greater than 1 µM; in experiment [4], 0.04 µM (≈ 0.0329 µg/mL); in experiment [5], 0.21 µM (≈ 0.173 µg/mL); in experiment [6] it was 0.03 µM (≈ 0.0247 µg/mL).

As to `NC(=O)c1c(COc2ccccc2/C=N/NC(=O)c2ccncc2)no[n+]1[O-]`, the MIC90 in experiment [1] is greater than 262 µM; in experiment [2], 0.44 µM (≈ 0.168 µg/mL); in experiment [3], 0.81 µM (≈ 0.31 µg/mL); in experiment [4], 0.81 µM (≈ 0.31 µg/mL); in experiment [5], greater than 262 µM; in experiment [6], 27.4 µM (≈ 10.5 µg/mL).

`CN[C@@H]1[C@H](O[C@H]2[C@H](O[C@H]3[C@H](O)[C@@H](O)[C@H](N=C(N)N)[C@@H](O)[C@@H]3N=C(N)N)O[C@@H](C)[C@]2(O)C=O)O[C@@H](CO)[C@H](O)[C@H]1O` [STREPTOMYCIN]: the values for the MIC90 in experiment [5] and in experiment [6] were 2.55 µM (≈ 1.48 µg/mL) and greater than 100 µM, respectively.

As to `COc1c(N2C[C@@H]3CCCN[C@@H]3C2)c(F)cc2c(=O)c(C(=O)O)cn(C3CC3)c12` [MOXIFLOXACIN], the MIC90 in experiment [1] was 0.23 µM (≈ 0.0923 µg/mL); in experiment [2], 0.12 µM (≈ 0.0482 µg/mL); in experiment [3], greater than 8 µM; in experiment [4] it was 0.26 µM (≈ 0.104 µg/mL); in experiment [5], 0.35 µM (≈ 0.141 µg/mL); in experiment [6], 0.36 µM (≈ 0.145 µg/mL).

On to `O=C(N/N=C/c1ccc2no[n+]([O-])c2c1)c1ccncc1`, for which the MIC90 in experiment [1] turned out to be 8.59 µM (≈ 2.43 µg/mL); in experiment [2], 3.78 µM (≈ 1.07 µg/mL); in experiment [3], 5.72 µM (≈ 1.62 µg/mL); in experiment [4] it was 1.2 µM (≈ 0.34 µg/mL); in experiment [6], 17 µM (≈ 4.81 µg/mL).

Regarding `COc1nc2ccc(Br)cc2cc1[C@@H](c1ccccc1)[C@@](O)(CCN(C)C)c1cccc2ccccc12` [BEDAQUILINE], the MIC90 in experiment [1] was determined as 0.01 µM (≈ 0.00556 µg/mL); in experiment [2], 0.01 µM (≈ 0.00556 µg/mL); in experiment [3], 0.06 µM (≈ 0.0333 µg/mL); in experiment [4] it was 1.7 µM (≈ 0.944 µg/mL); in experiment [5], 0.06 µM (≈ 0.0333 µg/mL); in experiment [6], 0.06 µM (≈ 0.0333 µg/mL).

Take `C[C@@H]1NC(=O)[C@@H](N)CNC(=O)[C@H]([C@H]2CCNC(=N)N2)NC(=O)/C(=C/NC(N)=O)NC(=O)[C@H](CNC(=O)C[C@@H](N)CCCN)NC1=O`: the figures for the MIC90 in experiment [5] and in experiment [6] were 60.5 µM (≈ 39.5 µg/mL) and 1.72 µM (≈ 1.12 µg/mL), respectively.
